{
  "source": "patent US11197918B2",
  "about": "“Pharmaceutical composition for preventing or treating neovascular disease, containing collagen type i and pigment epithelium derived factor peptide as active ingredients” (NexThera Co., Ltd., priority 2017, dated 2021)",
  "key": {"[1]": {"tested_on": "choroidal neovascularization (CNV)", "experiment": "Choroidal neovascularization model with complete neovascularization, treatment on day 7 after laser irradiation", "assay_type": "in vivo, C57BL/6 mice", "settings": "0.1% collagen type I, 25 pmol peptide or their mixture, administered once on day 7 after laser irradiation (FIG. 7B, 7C)"}, "[2]": {"tested_on": "choroidal neovascularization (CNV)", "experiment": "Laser-induced choroidal neovascularization model, intravitreal injection immediately after laser irradiation", "assay_type": "in vivo, C57BL/6 mice", "settings": "intraocular injection for 5 days, day 14 after laser (FIG. 2A, 2B)", "method": "5-8 week old C57BL/6 mice were purchased from Orient and used.\nThe pupils of each mouse were dilated using 5 mg/mL Tropicamide (santen pharmaceutical co. ltd, Kita-ku, Osaka, Japan) eye drops and 100 mg/kg ketamine (Huons, SEONGNAM-SI, GYEONGGI-DO, Korea) and 10 mg/kg xylazine (BAYER, Leverkusen, Germany) were anesthetized by intraperitoneal injection.\nAfter anesthesia, the mice were fixed to the mouse holder, and a laser beam of 150 to 210 mW intensity was irradiated for 0.1 second using a slit lamp microscope laser system to prepare four lesions of 50-100 μm size in the retinas of mice at 3, 6, 9 and 12 o'clock. At this time, droplets should be formed by the laser beam, which are important for breaking Bruch's membranes to form neovascularization (CNV). […]\nThe stained eyeball was separated and placed in 10% formalin to fix for 30 minutes, and then muscles, corneas, irises, lenses and vitreous bodies around the eyeball were carefully removed not to hurt the eye's retina fixed on the microscope and four sections were cut at 3, 6, 9, and 12 o'clock, covered with coverslip, the lesion was photographed using a fluorescence microscope, and the size was measured to compare with the control group."}, "HUVECs cells": {"tested_on": "HUVECs cells", "experiment": "Tube formation assay in VEGF-165-induced HUVECs", "assay_type": "cell-based, human", "method": "48-well plates were coated with 200 μl Matrigel and maintained at 37° C. for 1 hour, and HUVECs cells were stained with Calcein-AM for 15 minutes at 37° C.\nThe stained HUVECs cells were dispensed into 2×10^4 cells in each well of a Matrigel-coated plate and treated with recombinant human VEGF-165 into each well to induce the tube formation of the cells.\nThereafter, collagen type I (collagen type I alpha 1, partial [Sus scrofa] GenBank: AAR03833.1) and 34-mer pigment epithelium derived factor peptide (DPFFKVPVNKLAAAVSNFGYDLYRVRSSTSPTTN: SEQ ID NO: 1) were treated separately, respectively, or mixed together and treated and incubated for 4 hours at 37° C., and the degree of tube formation of each group was confirmed.\nThe degree of tube formation was confirmed by taking pictures with a Micromanipulator (Olympus) and compared by measuring the length of the tube."}, "HUVECs tube formation": {"tested_on": "HUVECs tube formation", "experiment": "Stability confirmation by tube formation assay after storage", "assay_type": "physicochemical, human", "settings": "stored for 6 weeks at 4° C. and room temperature (FIG. 11)", "method": "In order to confirm the stability of the mixture of PEDF 34-mer peptide and collagen, the mixture of PEDF 34-mer peptide and collagen and the PEDF 34-mer peptide were stored for 6 weeks at 4° C. and room temperature (RT), and stability of PEDF 34-mer peptide and PEDF 34-mer peptide and collagen mixture, which were prepared immediately before the experiment, were compared.\nTube formation assay for each mixture was performed to confirm angiogenesis inhibitory ability."}},
  "data": [
    {"substance": "DPFFKVPVNKLAAAVSNFGYDLYRVRSSTSPTTN (DPFFKVPVNKLAAAVSNFGYDLYRVRSSTSPTTN; pigemented epithelium derived factor peptide)", "values": [
      {"measurement": "angiogenesis inhibitory effect", "setting": "[1]", "result": "almost no angiogenesis inhibitory effect"},
      {"measurement": "size of neovascularization (CNV)", "setting": "[2]; peptide 10 pmol", "result": "increase neovascularization (CNV) again"},
      {"measurement": "size of neovascularization (CNV)", "setting": "[2]; peptide 0.01, 0.5 and 0.1 pmol", "result": "significantly reduced"},
      {"measurement": "inhibitory effect on tube formation", "setting": "HUVECs cells; carrier comparison: 0.1% collagen type I, hyaluronic acid or gelatin, alone or with peptide 0.02-500 pmol/ml (FIG. 4)", "result": "same as that of the 34-mer pigment epithelium derived factor peptide and collagen type I mixture administration group"},
      {"measurement": "inhibitory effect on tube formation", "setting": "HUVECs cells; peptide alone 0.2 pg/ml, VEGF-165-induced HUVECs, 4 hours (FIG. 1A, 1B)", "result": "greatest inhibitory effect on tube formation"},
      {"measurement": "tube formation", "setting": "HUVECs cells; peptide alone at higher concentrations (up to 5 pmol/ml), 4 hours (FIG. 1A, 1B)", "result": "the tube formation increased again"},
      {"measurement": "tube formation", "setting": "HUVECs cells; peptide at high concentration, alone or mixed with 0.05 or 0.1% collagen type I (FIG. 3)", "result": "the tube formation increased rapidly"},
      {"measurement": "stability: tube formation inhibition after storage compared with preparation made immediately before the experiment", "setting": "HUVECs tube formation", "result": "did not inhibit the tube formation"}
    ]}
  ]
}
